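Method: 48-hour compound exposure of cells in 96-well plates, five concentrations, linear interpolation of endpoints. Definition used: TGI = concentration required for complete inhibition of growth.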 Where a SMILES comes first, the peptide text is derived from it. [ ]: non-standard residue; d: D form. The star is where a group is joined. ξ: configuration not given here. ξPhe(4-NO2) = NC(Cc1ccc([N+](=O)[O-])cc1)C(=O)O; Boc = CC(C)(C)OC(=O)*
Legend:
Assay in all cases: NCI-60 cell line screen, 48 h
HOP-92 NSCLC = tested on: HOP-92 NSCLC
LOX IMVI melanoma = tested on: LOX IMVI melanoma
RPMI-8226 leukemia = tested on: RPMI-8226 leukemia
HS 578T breast = tested on: HS 578T breast
OVCAR-8 ovarian = tested on: OVCAR-8 ovarian
TK-10 renal = tested on: TK-10 renal
SN12C renal = tested on: SN12C renal
NCI-H23 lung = tested on: NCI-H23 lung
OVCAR-3 ovarian = tested on: OVCAR-3 ovarian
SF-539 CNS = tested on: SF-539 CNS
SNB-75 CNS = tested on: SNB-75 CNS

Compound | TGI (HOP-92 NSCLC) | TGI (LOX IMVI melanoma) | TGI (RPMI-8226 leukemia) | TGI (HS 578T breast) | TGI (OVCAR-8 ovarian) | TGI (TK-10 renal) | TGI (SN12C renal) | TGI (NCI-H23 lung) | TGI (OVCAR-3 ovarian) | TGI (SF-539 CNS) | TGI (SNB-75 CNS)
C=C(C1=CC(=O)C(C)(C)O1)[C@@H]1CC=C([C@@H]2CC[C@H]3[C@@]2(C)CC[C@H]2C(C)(C)C(=O)[C@H](OC(=O)CC(C)(O)CC(=O)O)C[C@]32C)[C@H](O)O1 (stereo partly drawn) | 24.7 µM | 25.9 µM | 5.24 µM | 66.7 µM | 29.1 µM | > 75 µM | 28 µM | 27.5 µM | 23.6 µM | 24.7 µM | 
CCNC(=O)CNC(=O)C(Cc1ccc([N+](=O)[O-])cc1)NC(=O)OC(C)(C)C (stereo not drawn) (Boc-[ξPhe(4-NO2)]-Gly-NHEt) | > 100 µM | > 100 µM | > 100 µM | > 100 µM | > 100 µM | > 100 µM | > 100 µM | > 100 µM | > 100 µM |  | > 100 µM
N#CC1=C(S)N(C2OC(CO)C(O)C(O)C2O)C(c2ccccc2)=CC1c1cccs1 (stereo not drawn) | 68.8 µM | 36.9 µM | > 100 µM | 67 µM | 65.9 µM | 48.2 µM | 32.4 µM | > 100 µM | 80.2 µM | 38.7 µM | 51.8 µM
Cc1cc(=O)n2nc(CSc3n[nH]c(=S)s3)sc2n1 | > 100 µM | > 100 µM | > 100 µM | > 100 µM | > 100 µM | > 100 µM | > 100 µM | > 100 µM | > 100 µM | > 100 µM | > 100 µM
CC1(C)CN=C(Nc2ccc(F)c(Cl)c2)S1 | > 100 µM | > 100 µM | > 100 µM | > 100 µM | > 100 µM | > 100 µM | > 100 µM | > 100 µM | > 100 µM | > 100 µM | > 100 µM
N#Cc1c2ccc([N+](=O)[O-])cc2c(=O)n2c1sc1ccccc12 | 41.3 µM | > 100 µM | 40.5 µM | > 100 µM | > 100 µM | 55.8 µM | > 100 µM | 43 µM |  |  | > 100 µM
C/C(=N\Nc1nc2ccccc2o1)c1cc2ccccc2cn1 | 11.1 µM |  | > 20.7 µM | 11.2 µM |  |  | 33.7 µM | 8.3 µM | 13.2 µM |  | 3.7 µM
C=CCOC1OC(CS(=O)(=O)O)C(OC(C)=O)C(OC(C)=O)C1OC(C)=O (stereo not drawn) | > 100 µM | > 100 µM | > 100 µM | > 100 µM | > 100 µM | > 100 µM | > 100 µM | > 100 µM | > 100 µM |  | > 100 µM
FC(F)(F)C1(c2ccccc2)SCc2nc3ccccc3n21 (stereo not drawn) | > 100 µM | > 100 µM | > 100 µM | > 100 µM | > 100 µM | > 100 µM | > 100 µM | > 100 µM | > 100 µM | > 100 µM | > 100 µM
CN(C(=O)c1ccc(Cl)cc1)C(=S)N1CCN(c2ccccc2)CC1 | > 100 µM | > 100 µM | > 100 µM | 95.6 µM | > 100 µM | > 100 µM | > 100 µM | > 100 µM | > 100 µM |  | > 100 µM
COc1ccc(Br)c(C=Nc2cccc3cc(OC)c(OC)cc23)c1 | 79.5 µM | 19.2 µM | > 46.3 µM | 57.1 µM | > 59.9 µM | 71.6 µM | > 46.4 µM | > 100 µM | > 100 µM | 12.4 µM | > 100 µM
COc1ccc2c(c1)OC1c3ccccc3OCC21 (stereo not drawn) | > 100 µM | > 100 µM | > 100 µM | > 100 µM | > 100 µM | > 100 µM | > 100 µM | > 100 µM | > 100 µM | > 100 µM | > 100 µM
COC(=O)[C@]1(Cc2ccc3ccccc3c2)CCCCCCN1C(=O)c1ccccc1 | > 52.9 µM | 30.3 µM | 17.9 µM | > 56.1 µM | > 48.5 µM | > 80.8 µM | > 51.5 µM | > 45.9 µM | > 43.5 µM | > 54.1 µM | 54.7 µM
CCNC1=C(NC(=O)CCl)C(=O)c2ccccc2C1=O | 36.2 µM |  | > 100 µM | 60.6 µM | 38.3 µM | 31.5 µM | 32.8 µM | 36 µM | 31.5 µM | 44.5 µM | > 10 µM
ClCCc1ccccc1CC1=NCCc2ccccc21 | > 100 µM | > 100 µM | 45.9 µM | > 100 µM | > 100 µM | > 100 µM | > 100 µM | 74.5 µM | > 100 µM | > 100 µM | 96.8 µM
CCOc1cc(/C=C2\N=C(c3ccccc3)N(c3nc4ccccc4s3)C2=O)ccc1O | > 100 µM | > 100 µM | 65.4 µM | 85.6 µM | > 100 µM | > 100 µM |  | 77.8 µM | > 100 µM | > 100 µM | > 100 µM
C=CCN(c1cc(OC)c2c(c1[N+](=O)[O-])C(C)(SC)C(=O)N2)S(C)(=O)=O (stereo not drawn) | > 100 µM | > 100 µM | > 100 µM | > 100 µM | > 100 µM | > 100 µM | > 100 µM | > 100 µM |  | > 100 µM | > 100 µM
O=C(Nc1nccs1)NS(=O)(=O)n1cnc2ccccc21 | > 100 µM |  | > 100 µM | > 100 µM | > 100 µM | > 100 µM | > 100 µM | > 100 µM | > 100 µM | > 100 µM | > 100 µM
CC1(C)CC[C@]2(C(=O)O)CC[C@]3(C)C(=CC[C@@H]4[C@@]5(C)CC[C@H](OC6OC(CO)C(O)C(O)C6O)C(C)(C)[C@@H]5CC[C@]43C)[C@@H]2C1 (stereo partly drawn) | 3.06 µM | 3.23 µM | 6.08 µM | 4.74 µM | 3.12 µM |  | 3.07 µM | 3.52 µM | 3.01 µM |  | 5.33 µM
O=C1CSC(c2cccc(Oc3ccccc3)c2)N1c1cccc(Cl)c1Cl (stereo not drawn) | 45.8 µM | 34.3 µM |  | 84.7 µM | 45.9 µM | > 100 µM | > 100 µM | 91.4 µM | > 100 µM | 58.3 µM | > 100 µM
COc1cc(C2SCC(=O)N2NC(=O)c2ccc(NC(C)=O)cc2OC)ccc1O (stereo not drawn) | 73.9 µM | > 100 µM | > 100 µM | > 100 µM | 62.9 µM |  | 79.8 µM | > 100 µM | > 100 µM | > 100 µM | 46.7 µM

— PubChem BioAssay (NCI)
